Data published in US8288552B2, “Dihydropyridone amidesas P2X7 modulators” (Roche Palo Alto LLC, priority 2008, dated 2012).

These compounds were tested against T1, P2X7 (UniProt Q99572) (assay: P2X7 pKi of Table 1).
T1 sequence (Q99572 1-595): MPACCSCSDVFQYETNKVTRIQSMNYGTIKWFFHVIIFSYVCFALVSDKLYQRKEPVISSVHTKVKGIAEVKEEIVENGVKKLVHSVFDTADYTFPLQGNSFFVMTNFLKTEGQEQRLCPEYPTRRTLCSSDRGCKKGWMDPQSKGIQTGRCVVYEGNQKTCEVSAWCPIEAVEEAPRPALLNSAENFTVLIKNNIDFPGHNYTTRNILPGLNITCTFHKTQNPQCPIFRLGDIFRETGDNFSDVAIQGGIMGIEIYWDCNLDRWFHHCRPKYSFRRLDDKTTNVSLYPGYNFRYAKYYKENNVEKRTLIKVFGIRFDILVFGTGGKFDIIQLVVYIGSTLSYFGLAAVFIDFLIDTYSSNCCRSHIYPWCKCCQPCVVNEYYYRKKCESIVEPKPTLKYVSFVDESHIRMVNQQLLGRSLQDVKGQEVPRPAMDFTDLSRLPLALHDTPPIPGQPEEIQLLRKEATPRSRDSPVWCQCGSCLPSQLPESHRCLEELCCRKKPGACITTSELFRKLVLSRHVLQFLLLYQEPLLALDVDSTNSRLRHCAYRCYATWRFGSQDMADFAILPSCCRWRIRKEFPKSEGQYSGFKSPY
Format: cell-based
Summary of the method: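 Human P2X7 in 1321N1 cells and rat P2X7 in HEK293 cells, loaded with fluo-3 for 1 hr at 37° C, then exposed to antagonist for 20 min at room temperature. BzATP agonist was used at 100 μM final (human) or 5 μM final (rat), with fluorescence read for 5 min. The response was normalized to maximal fluorescence evoked by 5 μM ionomycin.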

Row | Compound | pKi
1 | Cc1cc(Cl)c(CN(CCO)CCO)cc1NC(=O)C1=CNC(=O)C[C@H]1c1ccc(F)cc1 [Compound 124, (S)-4-(4-Fluoro-phenyl)-6-oxo-1,4,5,6-tetrahydro-pyridine-3-carboxylic acid(5-{[bis-(2-hydroxy-ethyl)-amino]-methyl}-4-chloro-2-methyl-phenyl)-amide] | 6.75
2 | COC(=O)COc1cc(NC(=O)C2=CNC(=O)C[C@H]2c2ccc(F)cc2)c(C)cc1Cl [Compound 125, (2-Chloro-5-{[(S)-4-(4-fluoro-phenyl)-6-oxo-1,4,5,6-tetrahydro-pyridine-3-carbonyl]-amino}-4-methyl-phenoxy)-acetic acid methyl ester] | 7.645
3 | COc1cc(C)c(NC(=O)C2=C(C)NC(=O)CC2c2ccc(F)cc2)cc1OC (centres unmarked) [Compound 126, 4-(4-Fluoro-phenyl)-2-methyl-6-oxo-1,4,5,6-tetrahydro-pyridine-3-carboxylic acid (4,5-dimethoxy-2-methyl-phenyl)-amide] | 6.48
4 | Cc1cc(Cl)c(NC(=O)C2=CNC(=O)C[C@H]2c2ccc(F)cc2)cc1OCCO [Compound 129, (S)-4-(4-Fluoro-phenyl)-6-oxo-1,4,5,6-tetrahydro-pyridine-3-carboxylic acid[2-chloro-5-(2-hydroxy-ethoxy)-4-methyl-phenyl]-amide] | 7.265
5 | COc1cc(C)c(NC(=O)C2=CNC(=O)C[C@@H]2c2ccc(Cl)cc2)cc1OC [Compound 132, (R)-4-(4-Chloro-phenyl)-6-oxo-1,4,5,6-tetrahydro-pyridine-3-carboxylic acid (4,5-dimethoxy-2-methyl-phenyl)-amide] | 6.38
6 | COc1ccc(NC(=O)C2=CNC(=O)C[C@H]2c2ccc(F)cc2)cc1OC [Compound 133, (S)-4-(4-Fluoro-phenyl)-6-oxo-1,4,5,6-tetrahydro-pyridine-3-carboxylic acid (3,4-dimethoxy-phenyl)-amide] | 6.04
7 | CNC(=O)COc1cc(NC(=O)C2=CNC(=O)C[C@H]2c2ccc(F)cc2)c(C)cc1Cl [Compound 134, (S)-4-(4-Fluoro-phenyl)-6-oxo-1,4,5,6-tetrahydro-pyridine-3-carboxylic acid(4-chloro-2-methyl-5-methylcarbamoylmethoxy-phenyl)-amide] | 6.24
8 | O=C1CC(c2ccccc2)C(C(=O)NC2CCc3ccccc32)=CN1 (centres unmarked) [Compound 136, 6-Oxo-4-phenyl-1,4,5,6-tetrahydro-pyridine-3-carboxylic acid indan-1-ylamide] | 5.412
9 | Cc1cc2c(cc1NC(=O)C1=CNC(=O)C[C@H]1c1ccc(F)cc1)OCCO2 [Compound 140, (S)-4-(4-Fluoro-phenyl)-6-oxo-1,4,5,6-tetrahydro-pyridine-3-carboxylic acid(7-methyl-2,3-dihydro-benzo[1,4]dioxin-6-yl)-amide] | 6.94
10 | Cc1cc(Cl)c(OCCO)cc1NC(=O)C1=CN(C)C(=O)C[C@H]1c1ccc(F)cc1 [Compound 142, (S)-4-(4-Fluoro-phenyl)-1-methyl-6-oxo-1,4,5,6-tetrahydro-pyridine-3-carboxylic acid[4-chloro-5-(2-hydroxy-ethoxy)-2-methyl-phenyl]-amide] | 6.835
11 | CCN1C=C(C(=O)Nc2cc(OC)c(OC)cc2C)[C@H](c2ccc(F)cc2)CC1=O [Compound 144, (S)-1-Ethyl-4-(4-fluoro-phenyl)-6-oxo-1,4,5,6-tetrahydro-pyridine-3-carboxylic acid(4,5-dimethoxy-2-methyl-phenyl)-amide] | 7.06
12 | COC[C@@H](O)COc1cc(NC(=O)C2=CN(C)C(=O)C[C@H]2c2ccc(F)cc2)c(C)cc1Cl [Compound 147, (S)-4-(4-Fluoro-phenyl)-1-methyl-6-oxo-1,4,5,6-tetrahydro-pyridine-3-carboxylic acid[4-chloro-5-((S)-2-hydroxy-3-methoxy-propoxy)-2-methyl-phenyl]-amide] | 5.85
13 | COC[C@@H](O)COc1cc(NC(=O)C2=CNC(=O)C[C@H]2c2ccc(F)cc2)c(C)cc1Cl [Compound 148, (S)-4-(4-Fluoro-phenyl)-6-oxo-1,4,5,6-tetrahydro-pyridine-3-carboxylic acid[4-chloro-5-((S)-2-hydroxy-3-methoxy-propoxy)-2-methyl-phenyl]-amide] | 6.49
14 | COC[C@@H](O)COc1cc(NC(=O)C2=CN(C)C(=O)C[C@H]2c2cccc(F)c2)c(C)cc1Cl [Compound 149, (S)-4-(3-Fluoro-phenyl)-1-methyl-6-oxo-1,4,5,6-tetrahydro-pyridine-3-carboxylic acid[4-chloro-5-((S)-2-hydroxy-3-methoxy-propoxy)-2-methyl-phenyl]-amide] | 6.035

The remaining lines, values ahead:

Row | pKi | Compound
15 | 5.055 | COc1cc(C)c(NC(=O)C2=C(C)NC(=O)CC2c2ccc(C(F)(F)F)cc2)cc1OC (centres unmarked) [Compound 127, 2-Methyl-6-oxo-4-(4-trifluoromethyl-phenyl)-1,4,5,6-tetrahydro-pyridine-3-carboxylic acid(4,5-dimethoxy-2-methyl-phenyl)-amide]
16 | 6.75 | O=C1C[C@@H](c2ccc(F)cc2)C(C(=O)Nc2cccc(Cl)c2Cl)=CN1 [Compound 128, (S)-4-(4-Fluoro-phenyl)-6-oxo-1,4,5,6-tetrahydro-pyridine-3-carboxylic acid (2,3-dichloro-phenyl)-amide]
17 | 7.2767 | Cc1cc(Cl)c(OCC(=O)N(C)C)cc1NC(=O)C1=CNC(=O)C[C@H]1c1ccc(F)cc1 [Compound 130, (S)-4-(4-Fluoro-phenyl)-6-oxo-1,4,5,6-tetrahydro-pyridine-3-carboxylic acid(4-chloro-5-dimethylcarbamoyl-methoxy-2-methyl-phenyl)-amide]
18 | 6.165 | COc1cc(C)c(NC(=O)C2=CNC(=O)C[C@H]2c2ccc(Cl)cc2)cc1OC [Compound 131, (S)-4-(4-Chloro-phenyl)-6-oxo-1,4,5,6-tetrahydro-pyridine-3-carboxylic acid (4,5-dimethoxy-2-methyl-phenyl)-amide]
19 | 5.8767 | Cc1ccc(C(N)=O)cc1NC(=O)C1=CNC(=O)C[C@H]1c1ccc(F)cc1 [Compound 135, (S)-4-(4-Fluoro-phenyl)-6-oxo-1,4,5,6-tetrahydro-pyridine-3-carboxylic acid(5-carbamoyl-2-methyl-phenyl)-amide]
20 | 4.98 | O=C1CC(c2cccc(F)c2)C(C(=O)Nc2cc3c(cc2Cl)OC(F)(F)O3)=CN1 (centres unmarked) [Compound 137, 4-(3-Fluoro-phenyl)-6-oxo-1,4,5,6-tetrahydro-pyridine-3-carboxylic acid(6-chloro-2,2-difluoro-benzo[1,3]dioxol-5-yl)-amide]
21 | 6.69 | O=C1CC(c2ccc(F)cc2)C(C(=O)Nc2cc3c(cc2Br)OCCO3)=CN1 (centres unmarked) [Compound 138, 4-(4-Fluoro-phenyl)-6-oxo-1,4,5,6-tetrahydro-pyridine-3-carboxylic acid(7-bromo-2,3-dihydro-benzo[1,4]dioxin-6-yl)-amide]
22 | 5.46 | O=C1CC(c2ccc(F)cc2)C(C(=O)Nc2cc3c(cc2Cl)OC(F)(F)O3)=CN1 (centres unmarked) [Compound 139, 4-(4-Fluoro-phenyl)-6-oxo-1,4,5,6-tetrahydro-pyridine-3-carboxylic acid(6-chloro-2,2-difluoro-benzo[1,3]dioxol-5-yl)-amide]
23 | 7.285 | Cc1cc(F)c(OCCO)cc1NC(=O)C1=CNC(=O)C[C@H]1c1ccc(F)cc1 [Compound 141, (S)-4-(4-Fluoro-phenyl)-6-oxo-1,4,5,6-tetrahydro-pyridine-3-carboxylic acid[4-fluoro-5-(2-hydroxy-ethoxy)-2-methyl-phenyl]-amide]
24 | 6.535 | Cc1cc(F)c(OCCO)cc1NC(=O)C1=CN(C)C(=O)C[C@H]1c1ccc(F)cc1 [Compound 143, (S)-4-(4-Fluoro-phenyl)-1-methyl-6-oxo-1,4,5,6-tetrahydro-pyridine-3-carboxylic acid[4-fluoro-5-(2-hydroxy-ethoxy)-2-methyl-phenyl]-amide]
25 | 6.55 | CCOC(=O)Cc1ccc(C)c(NC(=O)C2=CNC(=O)C[C@H]2c2ccc(F)cc2)c1 [Compound 145, (3-{[(S)-4-(4-Fluoro-phenyl)-6-oxo-1,4,5,6-tetrahydro-pyridine-3-carbonyl]-amino}-4-methyl-phenyl)-acetic acid ethyl ester]
26 | 7.71 | COc1cc(C)c(NC(=O)C2=CN(CCO)C(=O)C[C@H]2c2ccc(F)cc2)cc1OC [Compound 146, (S)-4-(4-Fluoro-phenyl)-1-(2-hydroxy-ethyl)-6-oxo-1,4,5,6-tetrahydro-pyridine-3-carboxylic acid(4,5-dimethoxy-2-methyl-phenyl)-amide]
